Read-outs that look alike come from different tables or passages of the source.
Assays:
[1] = system: primary rat calvaria (osteoblast) cultures; conditions: in vitro; cited from earlier work
[2] = system: Saos-2 cells; conditions: cited from earlier work
[3] = system: G292 cells; conditions: cited from earlier work
[4] = system: fetal rat calvaria (osteoblast) cells; conditions: in vitro; cited from earlier work
[5] = system: mouse calvaria; conditions: in vitro organ culture; cited from earlier work
[6] = system: closed femur fracture; assay: Rat closed femur fracture healing, radiographs (Example 4); type: in vivo, Sprague-Dawley rats; conditions: treated rats vs untreated rats
Method: (§1) Sprague-Dawley rats (3 months old) underwent a standard closed femur fracture procedure as described in the art (Simon et al. Journal of Bone and Mineral Research, 17(6): 963-976 (2002); Bonnarens and Einhorn, Production of a standard closed fracture in laboratory animal bone. Journal of Orthopaedic Research, 2: 97-101 (1984)). The impending fracture was stabilized with an intramedullary stainless steel pin. Beginning 4 hours after fracture the rats were treated with vehicle (1% methylcellulose) or inhibitors of 5-LO suspended in 1% methylcellulose Inhibitor A (NDGA) was administered at 30 mg/kg and Inhibitor B (AA-861) was administered at 5 mg/kg. The day after surgery and continuing until day 21 post-fracture, experimental rats were treated with 2 doses of inhibitor (either A or B), the first dose between […] and then again with another dose 8-10 hours later. Control rats were treated similarly but with carrier only (1% methylcellulose). Three weeks after fracture the rats were anesthetized and high resolution radiographs were made of the fractured femurs using a Packard Faxitron and Kodak MinR2000 mammography film (FIGS. 8A, 8B, and 8C). Five weeks after fracture the rats were sacrificed, femurs resected, and assayed for structural mechanical properties by torsional mechanical testing (FIG. 8D).

[7] = system: closed femur fracture; assay: Torsional mechanical testing of fractured rat femurs (Example 4); type: in vivo, Sprague-Dawley rats; conditions: 5 weeks of healing; for greater peak torque than vehicle treated rats: Inhibitor A 30 mg/kg, Inhibitor B 5 mg/kg, 2 doses daily until day 21; for mode of femur failure in torsional testing (boney union vs non-union): all femurs, vehicle 13% (2 of 15) non-unions
Method: as §1
Torsional mechanical testing was used to measure the peak torque sustained by each femur after 5 weeks of healing.

[8] = higher concentration (0.3-1 micromolar)

| Compound | proliferation of primary rat osteoblast cultures [1] | proliferation of Saos-2 cells ([2]; concentration not given) | alkaline phosphatase activity [4] | bone nodule formation [4] | BMP2 induced increase in mouse calvaria thickness [5] | osteogenesis / fracture healing (FIG. 8, x-rays) [6] | greater peak torque than vehicle treated rats [7] | mode of femur failure in torsional testing (boney union vs non-union) [7] | further results |
| --- | --- | --- | --- | --- | --- | --- | --- | --- | --- |
| CCCCC/C=C\C\C=C/C=C/C=C/[C@@H](SC[C@H](NC(=O)CC[C@H](N)C(=O)O)C(=O)NCC(=O)O)[C@@H](O)CCCC(=O)O [LTC4] | no effect | no effect |  |  |  |  |  |  | proliferation of G292 cells ([3]; concentration not given): promote proliferation |
| CCCCC/C=C\C\C=C/C=C/C=C/[C@@H](SC[C@H](N)C(=O)NCC(=O)O)[C@@H](O)CCCC(=O)O [LTD4] |  |  | no effect | no effect |  |  |  |  |  |
| 5-hydroxyeicosatetraenoic acid [Inhibitor 5-HETE] |  |  | reduce | reduce | prevented |  |  |  |  |
| CC1=C(C)C(=O)C(CCCCC#CCCCC#CCO)=C(C)C1=O [Inhibitor B, 2-(12-hydroxydodeca-5,10-diynyl)-3,5,6-trimethyl-1,4-benzoquinone] |  | no effect |  |  |  | accelerated | 53% | failed as boney unions |  |
| CCCCC/C=C\C[C@@H](O)/C=C/C=C/C=C\[C@@H](O)CCCC(=O)O [LTB4] | reduces proliferation |  | reduce | reduce | prevented |  |  |  | proliferation of Saos-2 cells [2, 8]: promote proliferation; proliferation of G292 cells [3, 8]: promote proliferation |
| CC(Cc1ccc(O)c(O)c1)C(C)Cc1ccc(O)c(O)c1 (stereo not drawn) [Inhibitor A, nordihydroguaiaretic acid] |  |  |  |  |  | accelerated | 22% | failed as boney unions |  |
